Patent publication US9062041B2 (Bayer Intellectual Property GmbH, priority 2011, dated 2015)

Tests used:
Format in all cases: cell-based
[1] = biological target: EP2 subtype of the human PGE2 receptor (Homo sapiens, UniProt P43116); test: cAMP antagonism test on the human EP2 receptor (HTRF cAMP detection); conditions: hEP2 receptor, read-out: Antagonism hEP2 IC50
Text: 1. Detection of Antagonism to the Human Prostaglandin E2 (Subtype EP2) Receptor Signal
(§1) The binding of PGE2 to the EP2 subtype of the human PGE2 receptor induces the activation of membrane-located adenylate cyclases and leads to the formation of cAMP. In the presence of the phosphodiesterase inhibitor IBMX, the cAMP accumulated owing to this stimulation and released by cell lysis is used in a competitive detection method. In this test, the cAMP present in the lysate competes with a fluorescence-labelled cAMP (cAMP-d2) for binding to an Eu cryptate-labelled anti-cAMP antibody.
(§2) In the absence of cellular cAMP, a maximal signal is produced, which is attributable to the binding of this cAMP-d2 molecule to the antibody. After excitation of the […] at 337 nm, there is a fluorescence resonance energy transfer (FRET) to the Eu cryptate molecules of the anti-cAMP antibody (labelled therewith), followed by a long-lasting emission signal at 665 nm (and at […]). Both signals are measured in a suitable measurement instrument with a time delay, i.e. after decay of the background fluorescence. Any increase in the low FRET signal caused by prostaglandin E2 administration (measured as well ratio change=emission665 nm/emission620 nm*10000) indicates the action of antagonists.
1.2.1. Test for Antagonism (Data Per Well of a 384-Well Plate):
(§3) To a test plate with the substance solutions already added (0.05 μl; 100% DMSO, concentration range from 0.8 nM-16.5 μM) were added 4 μl of a cAMP-d2/cell suspension (625000 cells/ml). After a 20-minute preincubation at room temperature (RT), 2 μl of a 3×PGE2 solution (1.5 nM, in PBS-IBMX) were added and incubated in the presence of the agonist for a further 60 mins at RT (volume: ˜6 μl). Next the reaction was stopped by addition of 2 μl of lysis buffer and incubated for a further 20 mins at RT before the actual measurement (volume: ˜8 μl).

[2] = biological target: EP4 subtype of the human PGE2 receptor (Homo sapiens, UniProt P35408); test: cAMP antagonism test on the human EP4 receptor (HTRF cAMP detection); conditions: selectivity towards hEP4, IC50 measured by cAMP antagonism test
Text: 2. Detection of Antagonism to the Human Prostaglandin E2 (Subtype EP4) Receptor Signal
as §1, with “EP4” for “EP2”
as §2, with “cAMP” for “cAMP,”
2.2.1. Test for Antagonism (Data Per Well of a 384-Well Plate):
as §3, with “(312500” for “(625000”, “(0.3” for “(1.5”

[3] = biological target: T1, human PGD receptor (Homo sapiens, UniProt Q13258); test: cAMP antagonism test on the human prostaglandin D receptor (HTRF cAMP detection); conditions: selectivity towards hDP, IC50 measured by cAMP antagonism test
T1 sequence (Q13258 1-359): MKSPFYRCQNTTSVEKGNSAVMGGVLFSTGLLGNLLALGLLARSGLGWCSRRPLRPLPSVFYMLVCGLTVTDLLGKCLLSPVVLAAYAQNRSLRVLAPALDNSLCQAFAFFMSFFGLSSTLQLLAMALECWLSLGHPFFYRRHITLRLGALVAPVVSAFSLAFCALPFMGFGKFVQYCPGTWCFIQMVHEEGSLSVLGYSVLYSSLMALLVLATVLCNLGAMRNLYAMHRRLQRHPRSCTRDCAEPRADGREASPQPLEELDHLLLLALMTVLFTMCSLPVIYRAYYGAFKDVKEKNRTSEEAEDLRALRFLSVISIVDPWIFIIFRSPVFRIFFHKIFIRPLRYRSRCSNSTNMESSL
Text: 3. Detection of Antagonism to the Human Prostaglandin D Receptor Signal
as §1, with “of prostaglandin D2” for “of PGE2”, “the” for “the EP2 subtype of the”, “human PGD” for “human PGE2”
as §2
3.2.1. Test for Antagonism (Data Per Well of a 384-Well Plate):
as §3, with “3×PGD2” for “3×PGE2”, “(6” for “(1.5”, “30” for “60”

EP4 subtype of the human PGE2 receptor, sequence (P35408 whole entry): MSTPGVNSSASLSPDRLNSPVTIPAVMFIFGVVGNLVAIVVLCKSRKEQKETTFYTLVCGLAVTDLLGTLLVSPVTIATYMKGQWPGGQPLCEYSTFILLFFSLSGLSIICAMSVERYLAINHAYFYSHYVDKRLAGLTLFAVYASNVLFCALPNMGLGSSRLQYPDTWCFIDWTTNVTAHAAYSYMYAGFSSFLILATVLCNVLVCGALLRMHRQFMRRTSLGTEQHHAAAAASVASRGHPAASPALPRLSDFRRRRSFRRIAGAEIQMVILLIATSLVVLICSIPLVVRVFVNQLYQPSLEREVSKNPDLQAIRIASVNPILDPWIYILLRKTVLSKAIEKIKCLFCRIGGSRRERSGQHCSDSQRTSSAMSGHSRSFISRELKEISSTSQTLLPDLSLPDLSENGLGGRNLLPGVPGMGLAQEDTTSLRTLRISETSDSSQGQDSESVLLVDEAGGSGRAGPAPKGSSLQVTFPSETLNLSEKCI
EP2 subtype of the human PGE2 receptor, sequence (P43116 whole entry): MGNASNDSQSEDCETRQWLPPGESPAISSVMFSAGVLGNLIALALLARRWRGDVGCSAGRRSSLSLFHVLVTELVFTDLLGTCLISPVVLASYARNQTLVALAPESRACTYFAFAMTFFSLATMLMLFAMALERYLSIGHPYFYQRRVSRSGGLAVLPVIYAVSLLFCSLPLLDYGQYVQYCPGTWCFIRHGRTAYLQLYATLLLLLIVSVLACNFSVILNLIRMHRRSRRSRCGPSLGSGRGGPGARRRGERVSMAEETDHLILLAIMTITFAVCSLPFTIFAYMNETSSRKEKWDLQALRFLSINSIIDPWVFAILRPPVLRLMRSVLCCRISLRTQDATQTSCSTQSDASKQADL

Compound	IC50 [1]	Selectivity hEP2/hEP4 [2]	Selectivity hEP2/hDP [3]
Cc1c(C(=O)NCCN2CCOCC2)ccc2nn(CC3CCN(C(=O)c4ccc(S(F)(F)(F)(F)F)cc4)CC3)cc12 [Example 60, 4-methyl-N-(2-morpholinoethyl)-2-({1-[4-(pentafluoro-λ^6-sulphanyl)benzoyl]-piperidin-4-yl}methyl)-2H-indazol-5-carboxamide]	175 nM	xx (xx: 10-100)	xx (xx: 10-100)
COc1c(C(=O)NCC(F)(F)F)ccc2nn(CC3CCN(C(=O)c4ccc(Cl)cc4)CC3)cc12 [Example 263, 2-{[1-(4-chlorobenzoyl)piperidin-4-yl]methyl}-4-methoxy-N-(2,2,2-trifluoro-ethyl)-2H-indazol-5-carboxamide]	181 nM	xx (xx: 10-100)	xx (xx: 10-100)
COCCNC(=O)c1ccc2nn(CC3CN(C(=O)c4cc5ccc(OC)cc5n4C)C3)cc2c1C [Example 173, N-(2-methoxyethyl)-2-({1-[(6-methoxy-1-methyl-1H-indol-2-yl)carbonyl]azetidin-3-yl}methyl)-4-methyl-2H-indazol-5-carboxamide]	2.71 nM	xxx (xxx > 100)	xxx (xxx > 100)
Cc1c(C(=O)NCC(F)(F)F)ccc2nn(CC3CN(C(=O)c4cc5cc(F)ccc5n4C)C3)cc12 [Example 167, 2-({1-[(5-fluoro-1-methyl-1H-indol-2-yl)carbonyl]azetidin-3-yl}methyl)-4-methyl-N-(2,2,2-trifluoroethyl)-2H-indazol-5-carboxamide]	13.5 nM	xxx (xxx > 100)	xxx (xxx > 100)
O=C(NCCOCC1CC1)c1ccc2nn(CC3CCN(C(=O)c4ccc(-c5ccc(F)cc5)cc4)CC3)cc2c1OC(F)F [Example 231, N-[2-(cyclopropylmethoxy)ethyl]-4-(difluoromethoxy)-2-({1-[(4′-fluorobiphenyl-4-yl)carbonyl]piperidin-4-yl}methyl)-2H-indazol-5-carboxamide]	13.2 nM	xxx (xxx > 100)	xxx (xxx > 100)
Cc1c(C(=O)NCCN2CCOCC2)ccc2nn(CC3CCN(C(=O)c4cccc(OC(F)(F)F)c4)CC3)cc12 [Example 61, 4-methyl-N-(2-morpholinoethyl)-2-({1-[3-(trifluoromethoxy)benzoyl]piperidin-4-yl}methyl)-2H-indazol-5-carboxamide]	1500 nM	xx (xx: 10-100)	xx (xx: 10-100)
COCCNC(=O)c1cc2cn(CC3CN(C(=O)c4ccc(OC(F)(F)F)cc4)C3)nc2cc1C [Example 181, N-(2-methoxyethyl)-6-methyl-2-({1-[4-(trifluoromethoxy)benzoyl]azetidin-3-yl}methyl)-2H-indazol-5-carboxamide]	35.2 nM	xxx (xxx > 100)	xxx (xxx > 100)
Cc1c(C(=O)NCC(F)(F)F)ccc2nn(CC3CCN(C(=O)c4ccc(-c5cnc(C(F)(F)F)nc5)cc4)CC3)cc12 [Example 328, 4-methyl-N-(2,2,2-trifluoroethyl)-2-[(1-{4-[2-(trifluoromethyl)pyrimidin-5-yl]-benzoyl}piperidin-4-yl)methyl]-2H-indazol-5-carboxamide]	256 nM	xx (xx: 10-100)	xx (xx: 10-100)
COCCNC(=O)c1ccc2nn(CC3CN(C(=O)c4ccc(OC(F)(F)F)cc4)C3)cc2c1C [Example 119, N-(2-methoxyethyl)-4-methyl-2-({1-[4-(trifluoromethoxy)benzoyl]azetidin-3-yl}methyl)-2H-indazol-5-carboxamide]	13.2 nM		xxx (xxx > 100)
COCCNC(=O)c1ccc2nn(CC3CN(C(=O)c4ccc(SC(F)(F)F)cc4)C3)cc2c1C [Example 118, N-(2-methoxyethyl)-4-methyl-2-[(1-{4-[(trifluoromethyl)sulphanyl]benzoyl}azetidin-3-yl)methyl]-2H-indazol-5-carboxamide]	8.17 nM		xxx (xxx > 100)
COCCNC(=O)c1ccc2nn(CC3CN(C(=O)c4ccc(C(F)(F)F)cc4F)C3)cc2c1C [Example 120, 2-({1-[2-fluoro-4-(trifluoromethyl)benzoyl]azetidin-3-yl}methyl)-N-(2-methoxy-ethyl)-4-methyl-2H-indazol-5-carboxamide]	15.5 nM		xxx (xxx > 100)
Cc1c(C(=O)NCCN2CCC(F)(F)C2)ccc2nn(CC3CCN(C(=O)c4ccc(Cl)cc4)CC3)cc12 [Example 69, 2-{[1-(4-chlorobenzoyl)piperidin-4-yl]methyl}-N-[2-(3,3-difluoropyrrolidin-1-yl)ethyl]-4-methyl-2H-indazol-5-carboxamide]	29 nM		xxx (xxx > 100)
Cc1c(C(=O)NCCN2CCC(F)(F)C2)ccc2nn(CC3CCN(C(=O)c4ccc(SC(F)(F)F)cc4)CC3)cc12 [Example 70, N-[2-(3,3-difluoropyrrolidin-1-yl)ethyl]-4-methyl-2-[(1-{4-[(trifluoromethyl)sulphanyl]benzoyl}piperidin-4-yl)methyl]-2H-indazol-5-carboxamide]	49 nM		xxx (xxx > 100)
COCCNC(=O)c1ccc2nn(CC3CN(C(=O)c4ccc(Cl)c(C(F)(F)F)c4)C3)cc2c1OC [Example 256, 2-({1-[4-chloro-3-(trifluoromethyl)benzoyl]azetidin-3-yl}methyl)-4-methoxy-N-(2-methoxyethyl)-2H-indazol-5-carboxamide]	107 nM	xxx (xxx > 100)	
